Source: US20230139826A1 (NONO INC., priority 2020, published 2023)
Residues, ends and D or L forms follow the SMILES beside them.

Legend:
acute ischemic stroke = assay: ESCAPE-NA1 trial: treatment emergent serious adverse events; type: in vivo, human
Description: The primary outcome was good outcome as defined by a score of 0-2 on the modified Rankin scale (mRS) (range, 0 [no symptoms] to 6 [death]) for the assessment of neurologic functional disability^2 assessed in person or, if an in-person visit was not possible, by telephone, at 90 days after randomization by personnel certified in the scoring of the mRS. Secondary efficacy outcomes were neurological outcome as defined by the NIHSS of 0-2, functional independence in activities of daily living as defined by a Barthel Index score of ≥95, excellent functional outcome as defined by a score of 0-1 on the mRS and mortality rates. Tertiary outcomes included assessments of stroke volumes on 24-hour imaging (MR or CT brain). Prespecified safety outcomes were all serious adverse events and mortality. Imaging interpretation was conducted at a central core laboratory and clinical data were verified by independent monitors. Infarct volumes were measured by summation of manual planimetric demarcation of infarct on axial imaging (636/1099 (57.9%) on CT and 463/1099 (42.1%) on MRI).
The safety population included all patients who received any amount of study drug (n=1101). There were no differences in important safety outcomes. (Table 3).

[1] = In-vivo pharmacokinetic analysis in rats; conditions: rat
Experimental: Since the effect of nerinetide in the ESCAPE-NA1 trial was negated by alteplase, we next evaluated the effects of alteplase on pharmacokinetics (PK) of nerinetide in rats. Alteplase was administered at 0.9 mg/kg (human dose) and at 5.4 mg/kg (6 times the human dose) in an infusion that simulated the clinical protocol (10% bolus followed by a 60 min infusion of the remainder). Nerinetide was administered as an intravenous bolus at the start of the alteplase infusion at 7.6 mg/kg.
The goal of these study was to evaluate nerinetide PK parameter changes when in the presence of circulating rt-PA and plasmin. Male naïve rats received an intravenous administration of either nerinetide alone, nerinetide plus rt-PA (0.9 mg/kg) or nerinetide plus rt-PA (5.4 mg/kg). Sample collection was performed pre-dose and 0 min, 5 min, 10 min, 20 min, 50 min post-dose. At each time point, approximately 300 uL of blood was sampled from each animal using a fresh syringe. Blood samples were collected in previously prepared Eppendorf tubes [30 ul of EDTA 2.5%] and centrifuged for 20 minutes to separate plasma and cell components.
Plasma samples were stored at −80° C. until analyzed.
Changes in peptide concentration were analyzed using a two-way repeated measures ANOVA, followed by the Sidak correction for multiple comparisons. The pharmacokinetic (PK) parameters of peak plasma concentration (Cmax) and the area under the plasma concentration-time curve from 0 to last measured concentration (AUC) were obtained with PKsolver Software (USA) using a non-compartmental analysis and employing a linear interpolation. For stroke studies, differences between groups were tested using a One-way ANOVA with a Tukey's correction for multiple comparisons. […] Values for animals experiencing premature death due to any reason including subarachnoid hemorrhage or hemorrhagic transformation were imputed to reflect the worst neurological score and the maximum stroke volume achieved across all animals.

[2] = In-vitro peptide degradation assay in human plasma with rt-PA or TNK
Experimental: (§1) To determine nerinetide stability in the presence of rt-PA in plasma, we use an in-vitro peptide content analysis by HPLC. In brief, Nerinetide or D-Tat-L-2B9c were spiked into rat or human plasma at a concentration of 65 ug/ml. rt-PA was added after the baseline time-point was collected, at the specified concentrations. rt-PA administration followed the clinical dosing approach [10% bolus dose followed by 60-mins infusion (90% of the dose)], using a Harvard apparatus pump. Sample collection following IV bolus was performed at 5 min, 15 min, 30 min and 45 min post-dose. At each time point, approximately 100 uL of plasma was collected from each vial using a fresh syringe. Plasma was then collected and stored at -80° C. until analyzed.
(§2) Nerinetide or D-Tat-L2B9c was extracted by precipitation with 1M perchloric acid. All analyses were performed on an Agilent 1260 Infinity Quaternary LC System (Agilent Technologies, Santa Clara, Calif., USA) and on a 25 cm [YMAA12S052546WT] C-18 RP-HPLC column (Agilent Technologies, Santa Clara, Calif., USA). The column was equilibrated with 10% acetonitrile with 0.1% TFA at 40° C. The eluent flow was 1.5 ml/min (gradient from 10% to 35% acetonitrile in 0.1% TFA) The UV trace was recorded at 220 nm. Concentrations of nerinetide or D-Tat-L-2B9c were derived from calibration standards obtained by spiking the agent into plasma.

[3] = Plasma half-life in humans; type: in vivo; conditions: intravenous, 2.6 mg/kg, human, human equivalent concentrations
PDZ2 domain of PSD-95 = PDZ2 domain of PSD-95 (Homo sapiens, UniProt P78352); assay: Direct ELISA of biotinylated peptides to PSD-95 PDZ2; type: binding; conditions: biotinylated peptides, triplicate; read-out: EC50, direct ELISA binding to PSD-95 PDZ2 domain
Experimental: ELISA plates were coated with 1 ug/ml PSD95PDZ2 in 50 mM bicarbonate buffer overnight at 4 C. The plate was blocked in 2%BSA in PBST (0.05%) for 2 h at room temperature. It was then incubated with biotinylated ligand (nerinetide, D-tat-L2B9c or D-Tat-L-AA) at the indicated concentrations (FIG. 4A) and incubated overnight at 4 C. After washing with PBS-T, the plate was incubated for 30 min with (1:3000) SA-HRP, washed again, and incubated with TMB solution for 10 min. The reaction was stopped with 100 ul H2504. Absorbance was determined at 450 nm with the synergy H1 reader.

[4] = In-vitro peptide degradation assay in rat plasma with rt-PA or TNK
Experimental: as §1, §2

[5] = nerinetide 7.6 mg/kg iv bolus with alteplase 0.9 mg/kg (human dose)
[6] = nerinetide 7.6 mg/kg iv bolus with alteplase 5.4 mg/kg

Chain of PDZ2 domain of PSD-95 (P78352 160-246 limits assumed): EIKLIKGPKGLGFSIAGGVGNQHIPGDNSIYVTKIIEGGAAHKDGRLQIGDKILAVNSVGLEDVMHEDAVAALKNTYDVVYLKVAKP

## CC[C@H](C)[C@H](NC(=O)[C@H](CO)NC(=O)[C@H](CO)NC(=O)[C@H](CC(C)C)NC(=O)[C@H](CCCCN)NC(=O)[C@H](CCCN=C(N)N)NC(=O)[C@H](CCCN=C(N)N)NC(=O)[C@H](CCCN=C(N)N)NC(=O)[C@H](CCC(N)=O)NC(=O)[C@H](CCCN=C(N)N)NC(=O)[C@H](CCCN=C(N)N)NC(=O)[C@H](CCCCN)NC(=O)[C@H](CCCCN)NC(=O)[C@H](CCCN=C(N)N)NC(=O)CNC(=O)[C@@H](N)Cc1ccc(O)cc1)C(=O)N[C@@H](CCC(=O)O)C(=O)N[C@@H](CO)C(=O)N[C@@H](CC(=O)O)C(=O)N[C@H](C(=O)O)C(C)C [Nerinetide] (H-YGRKKRRQRRRKLSSIESDV-OH)
Acute ischemic stroke; nerinetide n = 547
  Angioedema, patients number (proportion): 1 (0.2%)
  Congestive cardiac failure, patients number (proportion): 9 (1.6%)
  Deep vein thrombosis/pulmonary embolism, patients number (proportion): 3 (0.5%)
  Hives/Urticaria/Pruritis, number of patients: 0
  Hypotension, patients number (proportion): 7 (1.3%)
  Ischaemic stroke (new onset/recurrent), patients number (proportion): 18 (3.3%)
  Pneumonia, patients number (proportion): 25 (4.6%)
  Stroke-in-evolution (progression), patients number (proportion): 36 (6.6%)
  Symptomatic ICH, patients number (proportion): 19 (3.5%)
  Urinary tract infection, patients number (proportion): 8 (1.5%)
Acute ischemic stroke; nerinetide vs placebo
  Angioedema, RR (95% CI) unadjusted: 1.01 (0.06-16.1)
  Any serious adverse Event, RR (95% CI) unadjusted: 0.92 (0.79-1.09)
  Congestive cardiac failure, RR (95% CI) unadjusted: 2.28 (0.71-7.36)
  Deep vein thrombosis/pulmonary embolism, RR (95% CI) unadjusted: 0.38 (0.1-1.42)
  Hypotension, RR (95% CI) unadjusted: 7.09 (0.88-57.4)
  Ischaemic stroke (new onset/recurrent), RR (95% CI) unadjusted: 0.91 (0.49-1.70)
  Pneumonia, RR (95% CI) unadjusted: 1.49 (0.81-2.73)
  Stroke-in-evolution (progression), RR (95% CI) unadjusted: 0.85 (0.55-1.30)
  Symptomatic ICH, RR (95% CI) unadjusted: 0.80 (0.44-1.45)
  Urinary tract infection, RR (95% CI) unadjusted: 1.15 (0.42-3.17)
Acute ischemic stroke; patients treated with nerinetide
  rates of adverse events compared with placebo: no significant differences
Acute ischemic stroke; safety population, nerinetide n = 547
  Any serious adverse Event, patients number (proportion): 181 (33.1%)
[1]; male, plasma, intravenous, 7.6 mg/kg, human equivalent concentrations
  half-life: 5 to 10 min
[1]; [5]
  change of AUC of nerinetide: non-significant reduction
  change of Cmax of nerinetide: non-significant reduction
[1]; [6]
  lowering of the mean AUC of nerinetide: 44%
  lowering of the mean Cmax of nerinetide: 49.5%
[2]; TNK 6.25 ug/ml
  elimination in human plasma with tenecteplase (TNK): rapid elimination
[2]; absence of alteplase
  stability alone in human plasma: stable
[2]; rt-PA 135 ug/ml
  degradation in human plasma with alteplase: rapid degradation
[3]
  half-life: 5 to 10 min
PDZ2 domain of PSD-95
  EC50: 93 nM
[4]; 65 ug/ml nerinetide, 37° C., alteplase over 60 minutes
  nerinetide content in rat plasma on addition of alteplase: reduced the nerinetide content in rat plasma in a concentration-dependent manner
[4]; TNK 37.5 ug/ml
  elimination in rat plasma with tenecteplase (TNK): rapid elimination
[4]; absence of alteplase
  stability alone in rat plasma: stable
[4]; rt-PA 135 ug/ml
  degradation in rat plasma with alteplase: rapid degradation
